According to patent publication US7183054B2, “Assay for identifying biological targets of polynucleotide-binding compounds” (President and Fellows of Harvard College, priority 2003, dated 2007):

What was measured:
GAPDH [1] = target: T1, GAPDH (Bos taurus, UniProt P10096); assay: Affinity chromatography with drug-alkylated dsDNA resin in bovine brain lysate (GAPDH); assay type: binding; conditions: ds-oligonucleotide resin alkylated with drug; bovine brain lysate, 4° C.; silver-stained SDS-PAGE
T1 construct: from tissue; host or cells: bovine brain homogenate

HMG1 = target: T2, HMG1 (Bos taurus, UniProt P10103); assay: Affinity chromatography with drug-alkylated dsDNA resin in bovine brain lysate (HMG1); assay type: binding; conditions: ds-oligonucleotide resin alkylated with drug; pre-cleared bovine brain lysate
T2 construct: from tissue; host or cells: bovine brain homogenate
T2 sequence (P10103 1-215): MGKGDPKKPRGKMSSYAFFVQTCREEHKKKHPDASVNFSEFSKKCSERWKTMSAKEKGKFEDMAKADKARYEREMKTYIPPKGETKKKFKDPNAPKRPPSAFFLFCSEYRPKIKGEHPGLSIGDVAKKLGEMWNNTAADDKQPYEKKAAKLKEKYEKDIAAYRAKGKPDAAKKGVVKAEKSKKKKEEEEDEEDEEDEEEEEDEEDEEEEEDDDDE
Procedure: FIG. 4 is a photograph of a silver-stained SDS-PA gel showing the affinity chromatography results. The affinity matrix was incubated in bovine brain lysate at 4° C., washed extensively, and heat denatured to release bound proteins. […]
(§1) Construction of Drug-based Affinity Resin. […] The amount of drug coupled to the affinity resin was determined by quantifying the drug that remained in the supernatant using reverse-phase HPLC. […] The supernatant solution was analyzed by reverse-phase HPLC. The amount of ds-oligonucleotide detected in the supernatant from the heating step was taken to be the amount of ds-oligonucleotide coupled to drug on the affinity resin in the form of stable dsDNA-drug binary complex. […] The concentration of double-stranded 21-mer DNA on the resin was determined by heat denaturing the double strand DNA on a known amount of resin and subsequently determining the concentration of complementary strand in free solution by UV spectrometry. […]

A375 melanoma = A375 melanoma tumor cell line; cited from earlier work
GAPDH [2] = assay: Affinity chromatography with drug-alkylated dsDNA resin in bovine brain lysate (GAPDH); assay type: binding; conditions: summary statement
A549 lung carcinoma = A549 lung carcinoma tumor cell line; cited from earlier work
Human erythrocyte GAPDH = target: T3, Human erythrocyte GAPDH (Homo sapiens, UniProt P04406); assay: Southwestern blot of GAPDH with 32P-labeled dsDNA-drug complexes; assay type: binding; conditions: membrane probed with 32P labeled DNA alkylated with drug
T3 construct: Human erythrocyte GAPDH (Sigma 6019) was dissovled in ddH2O; purchased Sigma 6019 (G6019); host or cells: human erythrocytes
Procedure: FIG. 5 depicts the Southwestern blot technique using GAPDH and saframycins. FIG. 5A is a schematic of the Southwestern blot technique. […] The membranes with GAPDH were incubated with the various ^32P-labeled dsDNA-drug complexes. Lane 1: free dsDNA control; Lane 2: HQ alkylated dsDNA; Lane 3: QAD alkylated dsDNA; Lane 4: Pt 650 alkylated dsDNA; Lane 5: SafA alkylated dsDNA.
as §1, with “Resin. The amino-modified QAD and its hemiaminal derivative, amino-modified HQ was prepared by coupling SafA synthetic intermediate^11 with 6-(4-Fmoc-amino-n-butoxy)-quinaldic acid followed by Fmoc deprotection. The amino-modified QAD/HQ was purified by reverse-phase HPLC and coupled to AffiGel-15.” for “Resin.”

A549 cells = assay: GI50 in GAPDH siRNA transfected A549 cells (MTS); assay type: cell-based; conditions: 72 hours drug exposure

T1 sequence (P10096 2-333): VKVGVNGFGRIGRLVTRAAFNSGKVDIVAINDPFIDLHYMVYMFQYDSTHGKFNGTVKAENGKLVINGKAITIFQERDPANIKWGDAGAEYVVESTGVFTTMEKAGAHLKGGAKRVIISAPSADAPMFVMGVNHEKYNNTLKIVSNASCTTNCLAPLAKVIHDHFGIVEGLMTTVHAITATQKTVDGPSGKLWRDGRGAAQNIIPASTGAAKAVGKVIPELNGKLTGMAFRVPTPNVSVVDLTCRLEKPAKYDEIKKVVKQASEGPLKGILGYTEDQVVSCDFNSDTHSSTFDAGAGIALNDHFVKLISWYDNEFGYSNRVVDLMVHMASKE
T3 sequence (P04406 whole entry): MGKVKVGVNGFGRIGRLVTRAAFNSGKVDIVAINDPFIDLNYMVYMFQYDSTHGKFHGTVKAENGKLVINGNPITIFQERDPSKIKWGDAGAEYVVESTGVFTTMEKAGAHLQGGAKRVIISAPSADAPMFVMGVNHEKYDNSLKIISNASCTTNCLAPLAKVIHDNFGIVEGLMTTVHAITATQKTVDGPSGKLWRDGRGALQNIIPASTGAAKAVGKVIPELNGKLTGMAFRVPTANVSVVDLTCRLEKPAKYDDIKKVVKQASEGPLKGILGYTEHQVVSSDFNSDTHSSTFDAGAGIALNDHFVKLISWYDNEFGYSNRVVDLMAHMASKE

Row | Compound | binding of 37-kDa protein (GAPDH) to drug-dsDNA binary complex (GAPDH [1]) | binding of 31-kDa protein (HMG1) to drug-dsDNA binary complex (HMG1) | IC50 (A375 melanoma) | cellular target found (GAPDH [2]) | IC50 (A549 lung carcinoma) | radioactivity at GAPDH protein band (Human erythrocyte GAPDH) | GI50 change in GAPDH siRNA transfected cells vs control siRNA (A549 cells) | GI50 change in GAPDH siRNA transfected cells vs control siRNA (A549 cells; listed as cis-platin)
1 | N.N.[Cl][Pt+2][Cl] [transplatin] | did not bind | did not recruit any protein |  |  |  |  |  | 
2 | COC1=C(C)C(=O)C2=C(C1=O)[C@@H]1[C@@H]3CC4=C(C(=O)C(OC)=C(C)C4=O)[C@H](CNC(=O)C(C)=O)N3[C@@H](C#N)[C@H](C2)N1C [(−)-Saframycin A] | bind specifically |  | 5.3 nM | target cellular GAPDH | 133 nM | radioactivity was detected |  | 
3 | COc1cc2c(cc1O)CCN[C@]21CS[C@@H]2c3c(OC(C)=O)c(C)c4c(c3[C@H](COC1=O)N1[C@@H]2[C@H]2c3c(cc(C)c(OC)c3O)C[C@@H]([C@@H]1O)N2C)OCO4 [Ecteinascidin 743] |  |  | 0.15 nM | target cellular GAPDH | 1 nM |  |  | 
4 | COc1c(C)cc2c(c1O)[C@@H]1[C@@H]3Cc4c(OC(C)=O)c(C)c5c(c4[C@H](CN4C(=O)c6ccccc6C4=O)N3[C@@H](C#N)[C@H](C2)N1C)OCO5 [Pt 650, phthalascidin] | bind specifically |  |  |  |  | radioactivity was detected |  | 
5 | N.N.[Cl][Pt][Cl] [cisplatin] | did not bind | bind specifically |  |  |  |  | nearly the same sensitivity | unchanged
